Laboratory results: paper PMC1838524 (The Journal of biological chemistry, 2006)

Target: T1, Vam7p PX domain (Saccharomyces cerevisiae, UniProt P32912)
T1 sequence (P32912 2-122): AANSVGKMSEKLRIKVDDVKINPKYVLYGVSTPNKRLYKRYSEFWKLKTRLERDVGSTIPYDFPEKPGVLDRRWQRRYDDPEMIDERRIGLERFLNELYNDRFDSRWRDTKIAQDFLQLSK
Test: 1H-15N HSQC NMR titration
Type: binding

## CCCCCC(=O)OC[C@H](COP(=O)(O)OC[C@H](N)C(=O)O)OC(=O)CCCCC [C6-PtdSer, 1,2-dicaproyl-sn-glycero-3-[phospho-L-serine]]
  1H-15N HSQC NMR titration (chemical shift perturbation): NMR titration of soluble dicaproyl (C6)-PtdSer into the PX domain
